Structures can show the parent of a compound that is named as a salt.
What was measured:
[1] = Solid form stability at temperature and relative humidity; type: physicochemical; conditions: temperatures up to 40° C. and relative humidity of up to 75%
[2] = Dynamic vapor sorption (hygroscopicity); type: physicochemical; conditions: relative humidity of up to 80%, dynamic vapor sorption isotherm
Excerpt: Dynamic Vapor Sorption (DVS) data were collected with a SMS DVS Intrinsic from Surface Measurement Systems.

[3] = test system: panel of 10 BRD representing the various branches of the bromodomain tree; assay: AlphaScreen panel of 10 bromodomains; type: binding; conditions: number of bromodomains out of 10

Row | SMILES | stability of solid form [1] | water uptake [2] [%] | activity against 10 bromodomains surveyed [3]
1 | COC(=O)N1c2ccc3c(nc([C@H](O)c4cc(F)ccc4OC)n3[C@@H]3CCC[C@@H](C(=O)O)C3)c2CC[C@@H]1C [HCl type A salt, (1R,3R)-3-((S)-2-((R)-(5-fluoro-2-methoxyphenyl)(hydroxy)methyl)-6-(methoxycarbonyl)-7-methyl-6,7,8,9-tetrahydro-3H-imidazo[4,5-f]quinolin-3-yl) cyclohexane-1-carboxylic acid] | stable for at least two weeks | 6.3 | –
2 | COC(=O)N1c2ccc3c(nc([C@H](O)c4cc(F)ccc4OC)n3[C@@H]3CCC[C@@H](C(=O)O)C3)c2CC[C@@H]1C [Compound 1, (1R,3R)-3-[(7S)-2-[(R)-(5-fluoro-2-methoxyphenyl)(hydroxy)methyl]-6-(methoxycarbonyl)-7-methyl-3H,6H,7H,8H,9H-imidazo[4,5-f]quinolin-3-yl]cyclohexane-1-carboxylic acid] | – | – | inactive against 8
3 | COC(=O)N1c2ccc3c(nc([C@H](O)c4cc(F)ccc4OC)n3[C@@H]3CCC[C@@H](C(=O)O)C3)c2CC[C@@H]1C [type B p-toluenesulfonic acid addition salt] [(1R,3R)-3-((S)-2-((R)-(5-fluoro-2-methoxyphenyl)(hydroxy)methyl)-6-(methoxycarbonyl)-7-methyl-6,7,8,9-tetrahydro-3H-imidazo[4,5-f]quinolin-3-yl) cyclohexane-1-carboxylic acid] | stable for at least two weeks | 2.1 | –
